# Source: US8461305B2, “L-fucose α1→6 specific lectin” (J-Oil Mills, Inc., priority 2008, dated 2013)
# Experiment: frontal affinity chromatography (FAC), association constant to PA sugar chains without L-fucose
# Assay type: binding
# Method: The following section will describe a method of calculating an association constant by frontal affinity chromatography (FAC). This method is based on the following principle. […] Then, the elution front end (front) is observed immediately. When there is an affinity with lectin, the elution of the sugar chain is delayed.
# The preparation of a lectin column used in the apparatus is performed in the method as described below. 1. Purified lectin is dissolved in 0.1 to 0.2M of NaHCO3 buffer solution (pH 8.3 to 8.5). 2. The lectin is immobilized, via a lectin primary amino group, a carrier such as NHS activated sepharose. 3. Then, the lectin is blocked by Tris buffer solution including primary amine or ethanolamine for example. 4. Lectin-sepharose is suspended in 10 mM Tris buffer, including 0.8% of NaCl (pH 7.4, TBS). Then, lectin immobilized resin is filled in a miniature column (φ2 mm×10 mm, 31.4 μl). 5. The miniature column in which the lectin immobilized resin is filled is protected by a holder and the lectin column is connected to an FAC automatic analysis apparatus (FAC-1, SHIMADZU CORPORATION).
# Then, the elution of the PA sugar chain from the column is detected by a fluorescence detector (excitation wavelength/fluorescence wavelength: 310 nm/380 nm).
# Based on the detection data, by using the elution front end (Vo) of the sugar chain (PA rhamnose) not interacting with lectin as a reference, the delay (V−Vo) of the elution front end (V) of a sugar chain interacting with lectin is calculated as an interaction strength. Then, based on the following FAC criteria expressions, the association constant (Ka) between the sugar chain and lectin is calculated based on V−Vo and Bt. If the interaction strength (V−Vo value) and the association constant are higher, a higher affinity is caused between lectin and an L-fucose α1→6 sugar chain.
# [In the formula, A means substance used for the elution, Ao means the initial concentration of the substance A, B means a immobilized ligand, V means the elution volume, Vo means the elution front end volume of the substance not interacting with the immobilized ligand B at all, Bt means an effective ligand amount, Kd means a dissociation constant (an inverse of the association constant)].
# Pyridylaminated (PA) sugar chains shown in FIG. 1 and FIG. 2 were used to frontal affinity chromatography (FAC) analysis. PA sugars were purchased from TAKARA BIO INC., SEIKAGAKU BIOBUSINESS CORPORATION, and Masuda Chemical Industries co., LTD. PA sugar were also obtained by pyridylaminating, by GlycoTAG®(TAKARA BIO INC.), an unlabeled sugar chain or a sugar chain obtained by subjecting a sugar chain to enzyme digestion for example.
# Lectin was dissolved in 0.2 M NaHCO3 buffer solution (pH 8.3) including 0.5 M NaCl and coupled to the NHS-activated sepharose (GE Healthcare Bioscience) by following the manufacturer's instructions. Then, lectin immobilized sepharose was suspended in 10 mM Tris buffer (pH 7.4, TBS) including […] and the resultant matter was filled in a miniature column (φ2 mm×10 mm, 31.4 μl).
# Frontal affinity chromatography was performed using FAC automatic analysis apparatus (FAC-1, SHIMADZU CORPORATION). In particular, the above-prepared lectin column was inserted to a stainless steel holder and the holder was connected to FAC-1 apparatus. The flow rate and the column temperature were maintained at 0.125 ml/min and 25 degrees C., respectively. After the miniature column was equilibrated by the TBS, an excessive volume (0.5 ml to 4 ml) of a PA sugar chain (3.75 nM or 7.5 nM) was continuously inputted to the column using an automatic sampling apparatus.
# The fluorescent strength of the eluate of the PA sugar (excitation wavelength of 310 nm and fluorescence wavelength of 380 nm) was monitored to measure the interaction strength [a difference of the front end eluate to the standard oligosaccharide (PA rhamnose): V−V0]. […]
substance,measurement,setting,value
Naematoloma sublateritium lectin [NSL],binding to sugar chain not having L-fucose,FAC,not detected at all
same,association constant Ka,"Sugar chain No. 001, sugar chain not having L-fucose",<1000 M⁻¹
same,association constant Ka,"Sugar chain No. 002, sugar chain not having L-fucose",<1000 M⁻¹
same,association constant Ka,"Sugar chain No. 003, sugar chain not having L-fucose",<1000 M⁻¹
same,association constant Ka,"Sugar chain No. 004, sugar chain not having L-fucose",<1000 M⁻¹
same,association constant Ka,"Sugar chain No. 005, sugar chain not having L-fucose",<1000 M⁻¹
same,association constant Ka,"Sugar chain No. 006, sugar chain not having L-fucose",<1000 M⁻¹
same,association constant Ka,"Sugar chain No. 007, sugar chain not having L-fucose",<1000 M⁻¹
same,association constant Ka,"Sugar chain No. 008, sugar chain not having L-fucose",<1000 M⁻¹
same,association constant Ka,"Sugar chain No. 009, sugar chain not having L-fucose",<1000 M⁻¹
same,association constant Ka,"Sugar chain No. 010, sugar chain not having L-fucose",<1000 M⁻¹
same,association constant Ka,"Sugar chain No. 011, sugar chain not having L-fucose",<1000 M⁻¹
same,association constant Ka,"Sugar chain No. 012, sugar chain not having L-fucose",<1000 M⁻¹
same,association constant Ka,"Sugar chain No. 013, sugar chain not having L-fucose",<1000 M⁻¹
same,association constant Ka,"Sugar chain No. 014, sugar chain not having L-fucose",<1000 M⁻¹
same,association constant Ka,"Sugar chain No. 101, sugar chain not having L-fucose",<1000 M⁻¹
same,association constant Ka,"Sugar chain No. 103, sugar chain not having L-fucose",<1000 M⁻¹
same,association constant Ka,"Sugar chain No. 104, sugar chain not having L-fucose",<1000 M⁻¹
same,association constant Ka,"Sugar chain No. 105, sugar chain not having L-fucose",<1000 M⁻¹
same,association constant Ka,"Sugar chain No. 107, sugar chain not having L-fucose",<1000 M⁻¹
same,association constant Ka,"Sugar chain No. 108, sugar chain not having L-fucose",<1000 M⁻¹
same,association constant Ka,"Sugar chain No. 301, sugar chain not having L-fucose",<1000 M⁻¹
same,association constant Ka,"Sugar chain No. 304, sugar chain not having L-fucose",<1000 M⁻¹
same,association constant Ka,"Sugar chain No. 305, sugar chain not having L-fucose",<1000 M⁻¹
same,association constant Ka,"Sugar chain No. 307, sugar chain not having L-fucose",<1000 M⁻¹
same,association constant Ka,"Sugar chain No. 308, sugar chain not having L-fucose",<1000 M⁻¹
same,association constant Ka,"Sugar chain No. 313, sugar chain not having L-fucose",<1000 M⁻¹
same,association constant Ka,"Sugar chain No. 314, sugar chain not having L-fucose",<1000 M⁻¹
same,association constant Ka,"Sugar chain No. 323, sugar chain not having L-fucose",<1000 M⁻¹
same,association constant Ka,"Sugar chain No. 501, sugar chain not having L-fucose",<1000 M⁻¹
same,association constant Ka,"Sugar chain No. 502, sugar chain not having L-fucose",<1000 M⁻¹
same,association constant Ka,"Sugar chain No. 503, sugar chain not having L-fucose",<1000 M⁻¹
same,association constant Ka,"Sugar chain No. 504, sugar chain not having L-fucose",<1000 M⁻¹
same,association constant Ka,"Sugar chain No. 701, sugar chain not having L-fucose",<1000 M⁻¹
same,association constant Ka,"Sugar chain No. 702, sugar chain not having L-fucose",<1000 M⁻¹
same,association constant Ka,"Sugar chain No. 703, sugar chain not having L-fucose",<1000 M⁻¹
same,association constant Ka,"Sugar chain No. 704, sugar chain not having L-fucose",<1000 M⁻¹
same,association constant Ka,"Sugar chain No. 705, sugar chain not having L-fucose",<1000 M⁻¹
same,association constant Ka,"Sugar chain No. 706, sugar chain not having L-fucose",<1000 M⁻¹
same,association constant Ka,"Sugar chain No. 707, sugar chain not having L-fucose",<1000 M⁻¹
same,association constant Ka,"Sugar chain No. 708, sugar chain not having L-fucose",<1000 M⁻¹
same,association constant Ka,"Sugar chain No. 709, sugar chain not having L-fucose",<1000 M⁻¹
same,association constant Ka,"Sugar chain No. 710, sugar chain not having L-fucose",<1000 M⁻¹
same,association constant Ka,"Sugar chain No. 711, sugar chain not having L-fucose",<1000 M⁻¹
same,association constant Ka,"Sugar chain No. 712, sugar chain not having L-fucose",<1000 M⁻¹
same,association constant Ka,"Sugar chain No. 713, sugar chain not having L-fucose",<1000 M⁻¹
same,association constant Ka,"Sugar chain No. 715, sugar chain not having L-fucose",<1000 M⁻¹
same,association constant Ka,"Sugar chain No. 716, sugar chain not having L-fucose",<1000 M⁻¹
same,association constant Ka,"Sugar chain No. 717, sugar chain not having L-fucose",<1000 M⁻¹
same,association constant Ka,"Sugar chain No. 724, sugar chain not having L-fucose",<1000 M⁻¹
same,association constant Ka,"Sugar chain No. 725, sugar chain not having L-fucose",<1000 M⁻¹
same,association constant Ka,"Sugar chain No. 728, sugar chain not having L-fucose",<1000 M⁻¹
same,association constant Ka,"Sugar chain No. 732, sugar chain not having L-fucose",<1000 M⁻¹
same,association constant Ka,"Sugar chain No. 733, sugar chain not having L-fucose",<1000 M⁻¹
same,association constant Ka,"Sugar chain No. 734, sugar chain not having L-fucose",<1000 M⁻¹
same,association constant Ka,"Sugar chain No. 735, sugar chain not having L-fucose",<1000 M⁻¹
same,association constant Ka,"Sugar chain No. 736, sugar chain not having L-fucose",<1000 M⁻¹
same,association constant Ka,"Sugar chain No. 737, sugar chain not having L-fucose",<1000 M⁻¹
same,association constant Ka,"Sugar chain No. 738, sugar chain not having L-fucose",<1000 M⁻¹
same,association constant Ka,"Sugar chain No. 901, sugar chain not having L-fucose",<1000 M⁻¹
same,association constant Ka,"Sugar chain No. 902, sugar chain not having L-fucose",<1000 M⁻¹
same,association constant Ka,"Sugar chain No. 903, sugar chain not having L-fucose",<1000 M⁻¹
same,association constant Ka,"Sugar chain No. 905, sugar chain not having L-fucose",<1000 M⁻¹
same,association constant Ka,"Sugar chain No. 907, sugar chain not having L-fucose",<1000 M⁻¹
